Reference: ChEMBL document CHEMBL1127247, “Isoarecolones and arecolones: selective central nicotinic agonists that cross the blood-brain barrier” (Bioorg Med Chem Lett, 1994)

How the values were obtained:
[1] = molecular target: Muscarinic acetylcholine receptor; test: Binding affinity for muscarinic receptor site in rat hippocampus was determined using competitive radioligand binding assays employing [3H]OXO-M; assay type: tissue-based
[2] = molecular target: Neuronal acetylcholine receptor; test: Binding affinity for Nicotinic acetylcholine receptor site in rat cortex was determined using [3H]MCC as radioligand
[3] = Selectivity for nicotinic agonist activity was determined between Ki for [3H]-OXO-M and to that for [3H]MCC; assay type: functional
[4] = organism: Rattus norvegicus; test: (§1) Effect of compound on accumulation of dopamine metabolite dihydroxyphenyl acetic acid (DOPAC) in nucleus accumbens; assay type: functional
[5] = organism: Rattus norvegicus; test: as §1; assay type: functional, organism-based
[6] = organism: Rattus norvegicus; test: (§2) Effect of compound on accumulation of dopamine metabolite dihydroxyphenyl acetic acid (DOPAC) in rat striatum; assay type: functional
[7] = organism: Rattus norvegicus; test: (§3) Effect of compound on accumulation of homovanillic acid (HVA) in nucleus accumbens; assay type: functional
[8] = organism: Rattus norvegicus; test: (§4) Effect of compound on accumulation of homovanillic acid (HVA) in rat striatum; assay type: functional
[9] = organism: Rattus norvegicus; test: as §4; assay type: functional, organism-based
[10] = organism: Rattus norvegicus; test: as §2; assay type: functional, organism-based
[11] = organism: Rattus norvegicus; test: as §3; assay type: functional, organism-based

Row | Structure (SMILES) | Ki [1] | Ki [2] | Selectivity [3] | Control [4] | Concentration [5] | Control [6] | Control [7] | Control [8] | Concentration [9] | Concentration [10] | Concentration [11]
1 | CN1CCC=C(C(=O)Cc2ccccc2)C1 | 1885 nM | 123 nM | 15 | – | – | – | – | – | – | – | –
2 | CCC(=O)C1=CCN(C)CC1 | > 5000 nM | 25.7 nM | > 195 | – | – | – | – | – | – | – | –
3 | COC(=O)C1=CCCN(C)C1 [ARECOLINE] | – | 224 nM | – | – | – | – | – | – | – | – | –
4 | CCC(=O)C1=CCCN(C)C1 [ARECOLON] | 1950 nM | 5.8 nM | 336 | – | – | – | – | – | – | – | –
5 | CN1CC=C(C(=O)C(C)(C)C)CC1 | 6250 nM | 56.7 nM | 110 | – | – | – | – | – | – | – | –
6 | CCCC(=O)C1=CCN(C)CC1 | > 5000 nM | 67.3 nM | > 74 | – | – | – | – | – | – | – | –
7 | CC(=O)C1=CCN(C)CC1 | 5425 nM | 48.4 nM | 112 | – | – | – | – | – | – | – | –
8 | CCCCC(=O)C1=CCCN(C)C1 | 1385 nM | 61.3 nM | 23 | – | – | – | – | – | – | – | –
9 | CCCCC(=O)C1=CCN(C)CC1 | 4345 nM | 149 nM | 29 | – | – | – | – | – | – | – | –
10 | CC#CC(=O)C1=CCN(C)CC1 | 2690 nM | 22 nM | 122 | 120% | 1.66 nM/g | 123% | 132% | 140% | 1.25 nM/g | 1.91 nM/g | 0.73 nM/g
11 | CN1CCC[C@H]1c1cccnc1 [NICOTINE] | – | – | – | 144% | 2 nM/g | 140% | 157% | 151% | 134 nM/g | 2.18 nM/g | 0.86 nM/g
12 | CN1CCC=C(C(=O)c2ccccc2)C1 | 2450 nM | 178 nM | 14 | – | – | – | – | – | – | – | –
13 | CCCC(=O)C1=CCCN(C)C1 | 2730 nM | 13.1 nM | 208 | – | – | – | – | – | – | – | –
14 | CC#CC(=O)C1=CCCN(C)C1 | 1650 nM | 5.8 nM | 284 | 129% | 1.79 nM/g | 115% | 159% | 135% | 1.21 nM/g | 1.8 nM/g | 0.88 nM/g
15 | CC(=O)C1=CCCN(C)C1 | 4380 nM | 32.7 nM | 134 | – | – | – | – | – | – | – | –
16 | CN1CC=C(C(=O)Cc2ccccc2)CC1 | 3500 nM | 946 nM | 4 | – | – | – | – | – | – | – | –
17 | CN1CC=C(C(=O)c2ccccc2)CC1 | 3750 nM | 766 nM | 5 | – | – | – | – | – | – | – | –
